# Assay results published in publication PMC9131077, “Cytosolic Nudix Hydrolase 1 Is Involved in Geranyl β-Primeveroside Production in Tea” (Frontiers in Plant Science, 2022).
# Columns and labels:
# Assay in all cases: LC-MS/MS (MRM) of product GP
# Type in all cases: biochemical
# CsNUDX1-cyto = target: T1, CsNUDX1-cyto (Camellia sinensis, UniProt A0A4S4EYR7)
# T1 construct: gene TEA_005538; full length, 156 residues; E. coli BL21 (DE3) Rosetta, pET15b, N-terminal His-tag, tested with and without tag
# AtNUDX1 = target: T2, AtNUDX1 (Arabidopsis thaliana, UniProt Q9CA40); conditions: hydrolysed to GP; His-tagged positive control
# T2 construct: gene NUDT1; E. coli BL21 (DE3) Rosetta, His-tag kept
# CsNUDX1-chlo-Δ70 = target: T3, CsNUDX1-chlo-Δ70 (Camellia sinensis, UniProt A0A4S4EZL9); conditions: hydrolysed to GP; transit peptide removed
# T3 construct: gene TEA_000488; N-terminal 70-residue transit peptide removed from the 220-residue protein; E. coli BL21 (DE3) Rosetta, pET15b, N-terminal His-tag
# T3 sequence (A0A4S4EZL9 entry or part of it, stated change not applied): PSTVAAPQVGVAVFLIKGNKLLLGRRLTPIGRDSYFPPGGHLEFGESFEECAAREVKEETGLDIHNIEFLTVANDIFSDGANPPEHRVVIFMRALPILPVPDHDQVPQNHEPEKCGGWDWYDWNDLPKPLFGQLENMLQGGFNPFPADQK
# T1 sequence (A0A4S4EYR7 1-156): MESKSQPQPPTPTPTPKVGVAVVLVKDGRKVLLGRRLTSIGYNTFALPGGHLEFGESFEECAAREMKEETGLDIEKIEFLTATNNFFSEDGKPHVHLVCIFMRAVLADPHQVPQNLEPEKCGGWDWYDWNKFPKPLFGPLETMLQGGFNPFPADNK
# T2 sequence (Q9CA40 whole entry): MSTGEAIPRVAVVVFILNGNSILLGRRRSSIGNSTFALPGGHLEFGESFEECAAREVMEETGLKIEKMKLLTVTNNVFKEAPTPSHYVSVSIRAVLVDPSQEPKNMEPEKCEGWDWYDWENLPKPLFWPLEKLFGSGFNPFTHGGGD
Structure (SMILES),LC-MS/MS (MRM) of product GP (CsNUDX1-cyto; from GPP),"LC-MS/MS (MRM) of product GP (CsNUDX1-cyto; hydrolysed to GP, with and without His-tag)",LC-MS/MS (MRM) of product GP (AtNUDX1),LC-MS/MS (MRM) of product GP (CsNUDX1-chlo-Δ70)
CC(C)=CCC/C(C)=C/COP(=O)(O)O [geranyl monophosphate],GP was verified in vitro as the direct chemical product of CsNUDX1-cyto,–,–,–
CC(C)=CCC/C(C)=C/COP(=O)(O)OP(=O)(O)O [geranyl pyrophosphate],–,CsNUDX1-cyto possessed a stronger GPP to GP hydrolysis activity than the Arabidopsis AtNUDX1,stronger GPP to GP hydrolysis activity than the Arabidopsis AtNUDX1,exhibited an increased activity compared to the full length CsNUDX1-chlo
